Data set [1] relates to DLD-1 Parental (HD PAR-008). Description: Anti-proliferation assay 144 h (ATPlite). The format is cell-based. As to conditions: Homo sapiens, 144 h proliferation assay, * = value should be considered as approximate, read-out: Relative IC50, DLD-1 Parental. On the procedure: (§1) The sensitivity of DLD-1 Parental and BRCA2−/− isogenic cell lines Compound I and Compounds 1 and 7-10 were evaluated in 144 h proliferations assays. Cells were seeded into 384-well plates in McCoy's 5A medium supplemented with 10% FBS at the seeding densities indicated below and allowed to adhere overnight prior to addition of compound or vehicle control. Compounds were weighed out and stock solutions in DMSO were made immediately prior to treatment of cells. Serial dilutions of compounds were prepared in DMSO and diluted in media before being added to cells in quadruplicate to give the final concentrations indicated on graphs (10 μM top concentration, 9-point semi-log dilution series, 0.2% DMSO final concentration for all treatments). Cells were incubated with compounds for 144 h at 37° C., 5% C02 in a humidified atmosphere. At the assay endpoint, ATPlite (Perkin Elmer) reagent was added at a volume equal to the volume of cell culture medium already present in each well and the plates processed as per the manufacturer's instructions. Media only background values were subtract and ted and the data was analyzed using a 4-parameter logistic equation in GraphPad Prism. DLD-1 Parental (HD PAR-008) DLD-1 BRCA2−/− (HD 105-007) used.
Background: ATP-based viability assays read luminescence as a measure of living cells.

For data set [2], the system named is DLD-1 BRCA2−/− (HD 105-007). The data set is described as follows: Anti-proliferation assay 144 h (ATPlite). The format is cell-based. As to conditions: for Fold Sensitivity of BRCA2^-/- line: BRCA2^-/- line relative to DLD-1 Parental line; for Fold Sensitivity of BRCA2^-/- line / pIC50: 144 h proliferation assay; for pIC50: Homo sapiens, DLD-1, ATPlite, read-out: Relative IC50, DLD-1 BRCA2^-/-. On the procedure:
as §1

A short description of data set [3]: Stability of stock solutions and of spiked human plasma (LC/MS/MS method validation). The format is physicochemical. The conditions noted are these: refrigeration (2° C. to 8° C.). The procedure: A reference standard stock solution of Compound I was prepared by weighing the reference standard and dissolving it in a solution of 50:50:0.1 (v/v) mixture of ACN:deionized water:formic acid, followed by vortex-mixing and sonication. This stock solution was used for preparation of the calibration standards. Another stock solution of Compound I was prepared following the same procedure and was used for preparation of the QC samples. Both stock solutions were prepared previously and stored at refrigeration (2° C. to 8° C.) prior to use on the day of assay. […] Both solutions were used within the established stability timeframe.
The internal standard stock solution was previously prepared by weighing Compound A (2-(4-Methyl-piperazin-1-yl)-5-oxo-5H-7-thia-1,11b-diaza-benzo[c]fluorene-6-carboxylic acid (5-methyl-pyrazin-2-ylmethyl)-amide) and dissolving it in a solution of 50:50:0.1 (v/v) mixture of ACN:deionized water:formic acid. This stock solution was stored at refrigeration (2° C. to 8° C.) prior to use. […] This solution was used within the established stability timeframe. On the day of assay, this solution was further diluted with a solution of 50:50:0.1 (v/v) mixture of ACN:deionized water:formic acid into a solution for spiking.
This assay method was based on a nominal quantitation range of 5.00 ng/mL to 5000 ng/mL. Validation results met their acceptance criteria for the assessments of calibration range, assay accuracy and precision, hemolysis matrix effects, lipidemic matrix effects, selectivity and specificity, dilution integrity, and assay ruggedness with respect to changing analysts and instrument, and over the run time anticipated for a prospective test sample run. Chromatographic carryover was not observed. A 6-minute assay run time was validated. […] (−63° C. to −77° C.) and following 4 cycles of freeze/thaw.

pIC50: −log10 of the molar value.

Regarding `CN1CCCN(c2ccc3c(=O)c(C(N)=O)c4sc5ccccc5n4c3n2)CC1` [Compound 1, 2-(4-methyl-1,4-diazepan-1-yl)-5-oxo-5H-benzo[4,5]thiazolo[3,2-a][1,8]naphthyridine-6-carboxamide], the pIC50 in data set [1] was 5.73. Also, the “sensitivity of the BRCA2 null line relative to the parental line (in words)” value in data set [2] (144 h) is “extremely sensitive”. For the same compound, in data set [2], the “Fold Sensitivity of BRCA2^-/- line” value is given as 400 and the pIC50 is 8.33.

Regarding `Cc1cnc(CNC(=O)c2c(=O)c3ccc(N4CCCNCC4)nc3n3c2sc2ccccc23)cn1` [Compound 7, 2-(1,4-diazepan-1-yl)-N-((5-methylpyrazin-2-yl)methyl)-5-oxo-5H-benzo[4,5]thiazolo[3,2-a][1,8]naphthyridine-6-carboxamide], in data set [1], the pIC50 is approximately 4.92. In data set [2], the “Fold Sensitivity of BRCA2^-/- line” value is 21 and the pIC50 is 6.25.

As to `CN1CCCN(c2ccc3c(=O)c(C(=O)NCCCN4CCCCCC4=O)c4sc5ccccc5n4c3n2)CC1` [Compound 8, 2-(4-methyl-1,4-diazepan-1-yl)-N-(3-(2-oxoazepan-1-yl)propyl)-5-oxo-5H-benzo[4,5]thiazolo[3,2-a][1,8]naphthyridine-6-carboxamide], in data set [1], the pIC50 is 6.28. Besides, in data set [2], the “Fold Sensitivity of BRCA2^-/- line” value turned out to be 74 and the pIC50 was 8.14.

For the compound `Cc1cnc(CNC(=O)c2c(=O)c3ccc(N4CCC[N+](C)([O-])CC4)nc3n3c2sc2ccccc23)cn1` (centres unmarked) [Compound 9, 2-(4-methyl-4-oxidodiazepan-4-ium-1-yl)-N-((5-methylpyrazin-2-yl)methyl)-5-oxo-5H-benzo[4,5]thiazolo[3,2-a][1,8]naphthyridine-6-carboxamide], the pIC50 in data set [1] is approximately 5.06; in data set [2], 5.80. For the same compound, the “Fold Sensitivity of BRCA2^-/- line” value in data set [2] was 5.5.

With `Cc1cnc(C(=O)NC(=O)c2c(=O)c3ccc(N4CCCN(C)CC4)nc3n3c2sc2ccccc23)cn1` [Compound 10, 2-(4-methyl-1,4-diazepan-1-yl)-N-((5-methylpyrazin-2-yl)carbonyl)-5-oxo-5H-benzo[4,5]thiazolo[3,2-a][1,8]naphthyridine-6-carboxamide], the pIC50 in data set [1] was 5.80. Further, in data set [2], the “Fold Sensitivity of BRCA2^-/- line” value turned out to be 2.5 and the pIC50 was 6.21.

Regarding `Cc1cnc(CNC(=O)c2c(=O)c3ccc(N4CCN(C)CC4)nc3n3c2sc2ccccc23)cn1` [Compound A, 2-(4-Methyl-piperazin-1-yl)-5-oxo-5H-7-thia-1,11b-diaza-benzo[c]fluorene-6-carboxylic acid (5-methyl-pyrazin-2-ylmethyl)-amide, reference compound], the “stock solution stable (50:50:0.1 ACN:deionized water:formic acid)” value in data set [3] came out at 384 days.

(Values after patent publication US11524012B1, “Quinolone analogs and their salts, compositions, and method for their use” (Senhwa Biosciences, Inc., priority 2018, dated 2022).)
